Laboratory results taken from PubChem BioAssay AID1745844 (Carcinogenic Potency Database (CPDB), 2022).
Calls of active or inactive are those of the source. How the calls were made is not given here. Numbered stars: 1 amine (or outer) side, 2 acyl side, 3 side chain; on linkers, the order of the positions; unused ones are H or OH. Bridge positions count the residues as written; N and C are the ends. Square brackets hold non-standard residues; d marks the D form. Peptide text beside a SMILES is read from it. I, II: the chains in the order shown. Actinocin(9to1) = Cc1c2oc3c(C)ccc(C(=O)[*:1])c3nc-2c(C(=O)[*:2])c(N)c1=O; NMeV = CN[C@H](C(=O)O)C(C)C; Sar = CNCC(=O)O

Test system: rodent lifetime carcinogenesis bioassay, tumor incidence TD50
Experiment: carcinogenic potency in animals, long-term in vivo studies, CPDB compilation (AID 1745844)

## C=C/C=N/O
rat, strain Fischer 344, females, in drinking water, site: liver, lesion: hepatocellular carcinoma, dosed 104 weeks, study length 129 weeks
  TD50: 104 mg/kg/day
rat, strain Fischer 344, females, in drinking water, site: liver, lesion: hyperplastic nodule, dosed 30 weeks, study length 123 weeks
  TD50: 41.9 mg/kg/day
rat, strain Fischer 344, females, in drinking water, site: liver, lesion: hyperplastic nodule, dosed 104 weeks, study length 129 weeks
  TD50: 43.8 mg/kg/day
rat, strain Fischer 344, females, in drinking water, site: liver, lesion: several types, types named in the paper, dosed 104 weeks, study length 129 weeks
  TD50: 27.1 mg/kg/day
rat, strain Fischer 344, males, in drinking water, site: liver, lesion: hepatocellular carcinoma, dosed 30 weeks, study length 123 weeks
  TD50: 50.7 mg/kg/day
rat, strain Fischer 344, males, in drinking water, site: liver, lesion: hepatocellular carcinoma, dosed 104 weeks, study length 128 weeks
  TD50: 72.6 mg/kg/day
rat, strain Fischer 344, males, in drinking water, site: liver, lesion: hyperplastic nodule, dosed 30 weeks, study length 123 weeks
  TD50: 29.3 mg/kg/day
rat, strain Fischer 344, males, in drinking water, site: liver, lesion: hyperplastic nodule, dosed 104 weeks, study length 128 weeks
  TD50: 64.9 mg/kg/day
rat, strain Fischer 344, males, in drinking water, site: liver, lesion: several types, types named in the paper, dosed 30 weeks, study length 123 weeks
  TD50: 16.4 mg/kg/day
rat, strain Fischer 344, males, in drinking water, site: liver, lesion: several types, types named in the paper, dosed 104 weeks, study length 128 weeks
  TD50: 30.4 mg/kg/day

## O=NN1CCCCC1C(=O)O (stereo not drawn)
rat, strain MRC, females, in drinking water, site: any site (literature study), lesion: several types, types named in the paper, dosed 75 weeks, study length 104 weeks
  TD50: 4.99 mg/kg/day (inactive)
rat, strain MRC, males, in drinking water, site: any site (literature study), lesion: several types, types named in the paper, dosed 75 weeks, study length 104 weeks
  TD50: 3.82 mg/kg/day (inactive)

## Cc1c2oc3c(C)ccc(C(=O)N[C@@H]4C(=O)N[C@H](C(C)C)C(=O)N5CCC[C@H]5C(=O)N(C)CC(=O)N(C)[C@@H](C(C)C)C(=O)O[C@@H]4C)c3nc-2c(C(=O)N[C@@H]2C(=O)N[C@H](C(C)C)C(=O)N3CCC[C@H]3C(=O)N(C)CC(=O)N(C)[C@@H](C(C)C)C(=O)O[C@@H]2C)c(N)c1=O (I: T[dV]P[Sar][NMeV] / II: T[dV]P[Sar][NMeV]; ester I:1-I:C, II:1-II:C; linker I:N-II:N via Actinocin(9to1))
rat, strain Charles River CD (Sprague-Dawley), females, i.p., site: any site (literature study), lesion: malignant tumor, dosed 26 weeks, study length 78 weeks
  TD50: 0.00121 mg/kg/day
rat, strain Charles River CD (Sprague-Dawley), females, i.p., site: any site (literature study), lesion: several types, types named in the paper, dosed 26 weeks, study length 78 weeks
  TD50: 0.00145 mg/kg/day
rat, strain Charles River CD (Sprague-Dawley), females, i.p., site: lung, lesion: adenoma, dosed 26 weeks, study length 78 weeks
  TD50: 0.0501 mg/kg/day
rat, strain Charles River CD (Sprague-Dawley), females, i.p., site: peritoneum, lesion: sarcoma, dosed 26 weeks, study length 78 weeks
  TD50: 0.00199 mg/kg/day
rat, strain Charles River CD (Sprague-Dawley), males, i.p., site: all sites, lesion: lymphosarcoma, dosed 26 weeks, study length 78 weeks
  TD50: 0.0201 mg/kg/day
rat, strain Charles River CD (Sprague-Dawley), males, i.p., site: all sites, lesion: plasmacytoma, dosed 26 weeks, study length 78 weeks
  TD50: 0.0201 mg/kg/day
rat, strain Charles River CD (Sprague-Dawley), males, i.p., site: any site (literature study), lesion: malignant tumor, dosed 26 weeks, study length 78 weeks
  TD50: 0.000708 mg/kg/day
rat, strain Charles River CD (Sprague-Dawley), males, i.p., site: any site (literature study), lesion: several types, types named in the paper, dosed 26 weeks, study length 78 weeks
  TD50: 0.000501 mg/kg/day
rat, strain Charles River CD (Sprague-Dawley), males, i.p., site: liver, lesion: hemangioma, dosed 26 weeks, study length 78 weeks
  TD50: 0.0407 mg/kg/day
rat, strain Charles River CD (Sprague-Dawley), males, i.p., site: peritoneum, lesion: sarcoma, dosed 26 weeks, study length 78 weeks
  TD50: 0.000769 mg/kg/day

## NC(=S)Nc1cccc2ccccc12
mouse, strain B6AKF1, females, oral dosing, site: any site (literature study), lesion: several types, types named in the paper, dosed 76 weeks, study length 76 weeks
  carcinogen call: negative (inactive)
mouse, strain B6AKF1, females, oral dosing, site: liver, lesion: hepatoma, dosed 76 weeks, study length 76 weeks
  carcinogen call: negative (inactive)
mouse, strain B6AKF1, females, oral dosing, site: lung, lesion: adenoma, dosed 76 weeks, study length 76 weeks
  carcinogen call: negative (inactive)
mouse, strain B6AKF1, males, oral dosing, site: any site (literature study), lesion: several types, types named in the paper, dosed 76 weeks, study length 76 weeks
  carcinogen call: negative (inactive)
mouse, strain B6AKF1, males, oral dosing, site: liver, lesion: hepatoma, dosed 76 weeks, study length 76 weeks
  carcinogen call: negative (inactive)
mouse, strain B6AKF1, males, oral dosing, site: lung, lesion: adenoma, dosed 76 weeks, study length 76 weeks
  carcinogen call: negative (inactive)
mouse, strain B6C3F1, females, oral dosing, site: any site (literature study), lesion: several types, types named in the paper, dosed 76 weeks, study length 76 weeks
  TD50: 5.34 mg/kg/day (inactive)
mouse, strain B6C3F1, females, oral dosing, site: liver, lesion: hepatoma, dosed 76 weeks, study length 76 weeks
  carcinogen call: negative (inactive)
mouse, strain B6C3F1, females, oral dosing, site: lung, lesion: several types, types named in the paper, dosed 76 weeks, study length 76 weeks
  carcinogen call: negative (inactive)
mouse, strain B6C3F1, males, oral dosing, site: any site (literature study), lesion: several types, types named in the paper, dosed 76 weeks, study length 76 weeks
  TD50: 0.7 mg/kg/day (inactive)
mouse, strain B6C3F1, males, oral dosing, site: liver, lesion: hepatoma, dosed 76 weeks, study length 76 weeks
  carcinogen call: negative (inactive)
mouse, strain B6C3F1, males, oral dosing, site: lung, lesion: adenoma, dosed 76 weeks, study length 76 weeks
  TD50: 1.27 mg/kg/day (inactive)

## CCCCCC(N)=O
mouse, strain C57BL/6, females, in feed, site: liver, lesion: hepatocellular carcinoma, dosed 52 weeks, study length 69 weeks
  carcinogen call: negative (inactive)
mouse, strain C57BL/6, females, in feed, site: lung, lesion: alveolar/bronchiolar adenoma, dosed 52 weeks, study length 69 weeks
  TD50: 37200 mg/kg/day (inactive)
mouse, strain C57BL/6, females, in feed, site: stomach, lesion: squamous-cell papilloma, dosed 52 weeks, study length 69 weeks
  TD50: 8900 mg/kg/day
mouse, strain C57BL/6, males, in feed, site: all sites, lesion: malignant lymphoma, histiocytic type, dosed 52 weeks, study length 69 weeks
  TD50: 2140 mg/kg/day
mouse, strain C57BL/6, males, in feed, site: all sites, lesion: several types, types named in the paper, dosed 52 weeks, study length 69 weeks
  TD50: 1950 mg/kg/day
mouse, strain C57BL/6, males, in feed, site: liver, lesion: hemangiosarcoma, dosed 52 weeks, study length 69 weeks
  TD50: 25300 mg/kg/day (inactive)
mouse, strain C57BL/6, males, in feed, site: liver, lesion: malignant lymphoma, histiocytic type, dosed 52 weeks, study length 69 weeks
  TD50: 25300 mg/kg/day
mouse, strain C57BL/6, males, in feed, site: lung, lesion: alveolar/bronchiolar adenoma, dosed 52 weeks, study length 69 weeks
  TD50: 3490 mg/kg/day (inactive)
mouse, strain C57BL/6, males, in feed, site: multiple organs, lesion: malignant lymphoma, histiocytic type, dosed 52 weeks, study length 69 weeks
  TD50: 2660 mg/kg/day
rat, strain Fischer 344, females, in feed, site: liver, lesion: one or several types, types not named, dosed 52 weeks, study length 69 weeks
  carcinogen call: negative (inactive)
rat, strain Fischer 344, males, in feed, site: liver, lesion: one or several types, types not named, dosed 52 weeks, study length 69 weeks
  carcinogen call: negative (inactive)

## C[C@]12CC[C@@H]3c4ccc(OC(=O)Cc5ccc(N(CCCl)CCCl)cc5)cc4CC[C@H]3[C@@H]1CC[C@@H]2OC(=O)Cc1ccc(N(CCCl)CCCl)cc1
mouse, strain B6C3F1, females, by gavage, site: all sites + lung + myocardium + stomach, lesion: lymphoma + alveolar/bronchiolar adenoma + alveolar/bronchiolar carcinoma + sarcoma, NOS + squamous-cell carcinoma, dosed 52 weeks, study length 84 weeks
  TD50: 0.682 mg/kg/day
mouse, strain B6C3F1, females, by gavage, site: all sites, lesion: lymphoma, dosed 52 weeks, study length 82 weeks
  TD50: 2.23 mg/kg/day
mouse, strain B6C3F1, females, by gavage, site: all sites, lesion: lymphoma, dosed 52 weeks, study length 84 weeks
  TD50: 2.34 mg/kg/day
mouse, strain B6C3F1, females, by gavage, site: any site (literature study), lesion: several types, types named in the paper, dosed 52 weeks, study length 84 weeks
  TD50: 0.562 mg/kg/day
mouse, strain B6C3F1, females, by gavage, site: lung, lesion: alveolar/bronchiolar adenoma + alveolar/bronchiolar carcinoma, dosed 52 weeks, study length 82 weeks
  TD50: 1.28 mg/kg/day
mouse, strain B6C3F1, females, by gavage, site: lung, lesion: alveolar/bronchiolar adenoma + alveolar/bronchiolar carcinoma, dosed 52 weeks, study length 84 weeks
  TD50: 1.14 mg/kg/day
mouse, strain B6C3F1, females, by gavage, site: lung, lesion: alveolar/bronchiolar carcinoma, dosed 52 weeks, study length 82 weeks
  TD50: 2.87 mg/kg/day
mouse, strain B6C3F1, females, by gavage, site: mammary gland, lesion: adenocarcinoma, NOS + carcinoma, NOS, dosed 52 weeks, study length 82 weeks
  TD50: 12.8 mg/kg/day
mouse, strain B6C3F1, females, by gavage, site: mammary gland, lesion: adenocarcinoma, NOS + carcinoma, NOS, dosed 52 weeks, study length 84 weeks
  TD50: 13.4 mg/kg/day
mouse, strain B6C3F1, females, by gavage, site: myocardium, lesion: sarcoma, NOS, dosed 52 weeks, study length 82 weeks
  TD50: 3.22 mg/kg/day
mouse, strain B6C3F1, females, by gavage, site: myocardium, lesion: sarcoma, NOS, dosed 52 weeks, study length 84 weeks
  TD50: 3.01 mg/kg/day
mouse, strain B6C3F1, females, by gavage, site: stomach, lesion: squamous-cell carcinoma, dosed 52 weeks, study length 84 weeks
  TD50: 5.17 mg/kg/day
mouse, strain B6C3F1, males, by gavage, site: all sites + stomach, lesion: leukemia + lymphoma + squamous-cell carcinoma, dosed 52 weeks, study length 83 weeks
  TD50: 4.1 mg/kg/day
mouse, strain B6C3F1, males, by gavage, site: all sites, lesion: leukemia + lymphoma, dosed 52 weeks, study length 81 weeks
  TD50: 4.31 mg/kg/day
mouse, strain B6C3F1, males, by gavage, site: all sites, lesion: leukemia + lymphoma, dosed 52 weeks, study length 83 weeks
  TD50: 4.39 mg/kg/day
mouse, strain B6C3F1, males, by gavage, site: any site (literature study), lesion: several types, types named in the paper, dosed 52 weeks, study length 83 weeks
  TD50: 1.96 mg/kg/day
mouse, strain B6C3F1, males, by gavage, site: lung, lesion: alveolar/bronchiolar adenoma + alveolar/bronchiolar carcinoma, dosed 52 weeks, study length 81 weeks
  TD50: 1.99 mg/kg/day
mouse, strain B6C3F1, males, by gavage, site: lung, lesion: alveolar/bronchiolar adenoma + alveolar/bronchiolar carcinoma, dosed 52 weeks, study length 83 weeks
  TD50: 2.34 mg/kg/day
mouse, strain B6C3F1, males, by gavage, site: lung, lesion: alveolar/bronchiolar carcinoma, dosed 52 weeks, study length 81 weeks
  TD50: 3.61 mg/kg/day
mouse, strain B6C3F1, males, by gavage, site: myocardium, lesion: sarcoma, NOS, dosed 52 weeks, study length 81 weeks
  TD50: 5.55 mg/kg/day
mouse, strain B6C3F1, males, by gavage, site: stomach, lesion: squamous-cell carcinoma, dosed 52 weeks, study length 83 weeks
  TD50: 29 mg/kg/day
rat, strain Sprague-Dawley, females, by gavage, site: any site (literature study), lesion: several types, types named in the paper, dosed 52 weeks, study length 85 weeks
  TD50: 0.189 mg/kg/day (inactive)
rat, strain Sprague-Dawley, males, by gavage, site: any site (literature study), lesion: several types, types named in the paper, dosed 52 weeks, study length 85 weeks
  TD50: 3.85 mg/kg/day (inactive)
rat, strain Sprague-Dawley, males, by gavage, site: mammary gland, lesion: fibroadenoma, dosed 52 weeks, study length 85 weeks
  TD50: 0.756 mg/kg/day (inactive)

## CN(C)C(=O)Cl
hamster, strain Syrian Golden, males, inhaled, site: nasal cavity, lesion: squamous-cell carcinoma, dosed 112 weeks, study length 112 weeks
  TD50: 0.625 mg/kg/day
mouse, strain Ha/ICR, females, i.p., site: abdomen, lesion: sarcoma, dosed 64 weeks, study length 64 weeks
  TD50: 5.37 mg/kg/day
mouse, strain Ha/ICR, females, i.p., site: abdomen, lesion: several types, types named in the paper, dosed 64 weeks, study length 64 weeks
  TD50: 4.59 mg/kg/day
mouse, strain Ha/ICR, females, i.p., site: lung, lesion: papillary tumor, dosed 64 weeks, study length 64 weeks
  TD50: 6.65 mg/kg/day
